The results in this text go back to PubChem BioAssay AID248 (DTP/NCI, 2004).

The structures appear in SMILES notation. Where “and” joins values, the source holds several entries; their conditions need not be identical. Equal values may be shown once. Inconclusive results and toxic doses are left out.

The subject of this test is L1210 leukemia ip in BDF1 mice, survival T/C. Kind of test: NCI In Vivo Anticancer Drug Screen. Data for tumor model L1210 Leukemia (intraperitoneal) in B6D2F1 (BDF1) mice. The conditions noted are these: endpoint: mean survival time, higher = longer survival. The procedure, abridged:
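Transplantable tumor model; survival measured in treated vs vehicle control mice. Value = treated/control.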

[1] abbreviates: dose: 100.0 mg/kg/injection, schedule: Q01DX001 (ip), vehicle: saline.
Where [2] appears, read: dose: 200.0 mg/kg/injection, schedule: Q01DX001 (ip), vehicle: saline.
Where [3] appears, read: dose: 100.0 mg/kg/injection, schedule: Q04DX003 (ip), vehicle: saline with Tween-80.
Setting [4] is: dose: 200.0 mg/kg/injection, schedule: Q04DX003 (ip), vehicle: saline with Tween-80.
The mark [5] stands for this setting: dose: 50.0 mg/kg/injection, schedule: Q01DX009 (ip), vehicle: saline with Tween-80.
[6] abbreviates: dose: 100.0 mg/kg/injection, schedule: Q01DX009 (ip), vehicle: saline with Tween-80.
The mark [7] stands for this setting: dose: 400.0 mg/kg/injection, schedule: Q01DX001 (ip), vehicle: saline.
Setting [8] is: dose: 100.0 mg/kg/injection, schedule: Q04DX003 (ip), vehicle: saline.
The mark [9] stands for this setting: dose: 200.0 mg/kg/injection, schedule: Q01DX009 (ip), vehicle: saline with Tween-80.
Where [10] appears, read: dose: 400.0 mg/kg/injection, schedule: Q01DX009 (ip), vehicle: saline with Tween-80.
The mark [11] stands for this setting: dose: 50.0 mg/kg/injection, schedule: Q01DX001 (ip), vehicle: saline.

`CC[C@@]1(O)c2cc3n(c(=O)c2CO[C@H]1O)Cc1cc2ccccc2nc1-3`: the T/C (dose: 0.5 mg/kg/injection, schedule: Q01DX Z (ip), vehicle: saline) was 96 % of control; the T/C (dose: 1.0 mg/kg/injection, schedule: Q01DX Z (ip), vehicle: saline) was 94 % of control; the T/C (dose: 2.0 mg/kg/injection, schedule: Q01DX Z (ip), vehicle: saline) was 97 % of control; the T/C (dose: 4.0 mg/kg/injection, schedule: Q01DX015 (ip), vehicle: saline) was 104 % of control; the T/C (dose: 4.0 mg/kg/injection, schedule: Q01DX Z (ip), vehicle: saline) was 97 % of control; the T/C (dose: 8.0 mg/kg/injection, schedule: Q01DX007 (ip), vehicle: other) was 108 % of control. In addition, the T/C reads like this: (dose: 8.0 mg/kg/injection, schedule: Q01DX012 (ip), vehicle: saline) 95 % of control; (dose: 8.0 mg/kg/injection, schedule: Q01DX015 (ip), vehicle: saline) 106 % of control; (dose: 16.0 mg/kg/injection, schedule: Q01DX007 (ip), vehicle: other) 112 % of control; (dose: 16.0 mg/kg/injection, schedule: Q01DX012 (ip), vehicle: saline) 108 % of control; (dose: 16.0 mg/kg/injection, schedule: Q01DX015 (ip), vehicle: saline) 150 % of control.
For `CN1C(=O)C2(c3ccccc31)C1CC3C(CO1)C1C2C3(CO)C[N+]1(C)C` (stereo unspecified), the T/C under setting [1] is 97 % of control and the T/C under setting [2] is 102 % of control.
Take `Clc1ccc(NC(Nc2ccc(Cl)c(Cl)c2)C(Cl)(Cl)Cl)cc1Cl`: the T/C was 101 % of control under setting [3] and 90 % of control under setting [4].
On to `COc1cc2cc3c4ccccc4cc[n+]3c(C)c2cc1OC` (tested in a mixture with another compound), for which the T/C runs as follows: (dose: 2.5 mg/kg/injection, schedule: Q01DX009 (ip), vehicle: saline) 102 % of control; (dose: 5.0 mg/kg/injection, schedule: Q01DX009 (ip), vehicle: saline) 110 % of control; (dose: 10.0 mg/kg/injection, schedule: Q01DX009 (ip), vehicle: saline) 115 % of control; (dose: 20.0 mg/kg/injection, schedule: Q01DX009 (ip), vehicle: saline) 121 % of control; (dose: 40.0 mg/kg/injection, schedule: Q01DX009 (ip), vehicle: saline) 118 % of control.
Regarding `Nc1nc(N)c2cc(CCc3ccccc3)ccc2n1`, the T/C is 95 % of control (dose: 50.0 mg/kg/injection, schedule: Q01DX001 (ip), vehicle: carboxymethylcellulose (CMC)); 95 % of control (dose: 100.0 mg/kg/injection, schedule: Q01DX001 (ip), vehicle: carboxymethylcellulose (CMC)); 95 % of control (dose: 100.0 mg/kg/injection, schedule: Q04DX003 (ip), vehicle: Klucel (hydroxypropylcellulose) (HPC)); 101 % of control (dose: 200.0 mg/kg/injection, schedule: Q01DX001 (ip), vehicle: carboxymethylcellulose (CMC)); 90 % of control (dose: 200.0 mg/kg/injection, schedule: Q04DX003 (ip), vehicle: Klucel (hydroxypropylcellulose) (HPC)).
With `CN1CCCC1CCNc1nc(C(Cl)(Cl)Cl)nc2ccc(Cl)cc12` (stereo unspecified), the T/C is 106 % of control (dose: 25.0 mg/kg/injection, schedule: Q01DX009 (ip), vehicle: saline with Tween-80); 96 % of control under setting [5]; 106 % of control under setting [6]; 88 % of control under setting [3].
For `O=C(/C=C/C(=O)c1ccc(-c2ccccc2)cc1)c1ccc(-c2ccccc2)cc1`, the T/C is 92 % of control (dose: 50.0 mg/kg/injection, schedule: Q01DX009 (ip), vehicle: Klucel (hydroxypropylcellulose) (HPC)); 87 % of control (dose: 100.0 mg/kg/injection, schedule: Q01DX009 (ip), vehicle: Klucel (hydroxypropylcellulose) (HPC)); 90 % of control (dose: 200.0 mg/kg/injection, schedule: Q01DX009 (ip), vehicle: Klucel (hydroxypropylcellulose) (HPC)); 87 % of control (dose: 400.0 mg/kg/injection, schedule: Q01DX009 (ip), vehicle: Klucel (hydroxypropylcellulose) (HPC)).
As to `C1CCC2CC3CCCCC3CC2C1` (stereo unspecified), the T/C runs as follows: under setting [1], 90 % of control; under setting [7], 102 % of control.
As to `N/C(=N/N=C\c1ccccc1Cl)N/N=C/c1ccccc1Cl`, the T/C is 94 % of control (dose: 15.0 mg/kg/injection, schedule: Q01DX Z (ip), vehicle: carboxymethylcellulose (CMC)); 100 % of control (dose: 30.0 mg/kg/injection, schedule: Q01DX Z (ip), vehicle: carboxymethylcellulose (CMC)); 95 % of control (dose: 60.0 mg/kg/injection, schedule: Q01DX Z (ip), vehicle: carboxymethylcellulose (CMC)); 94 % of control (dose: 120.0 mg/kg/injection, schedule: Q01DX Z (ip), vehicle: carboxymethylcellulose (CMC)); 100 % of control (dose: 120.0 mg/kg/injection, schedule: Q01DX Z (oral), vehicle: carboxymethylcellulose (CMC)); 100 % of control (dose: 240.0 mg/kg/injection, schedule: Q01DX Z (oral), vehicle: carboxymethylcellulose (CMC)). Moreover, the T/C (dose: 960.0 mg/kg/injection, schedule: Q01DX Z (oral), vehicle: carboxymethylcellulose (CMC)) is 101 % of control.
Consider `CCCC(C(=O)OCCN(CC)CC)(c1ccccc1)c1ccccc1`, for which the T/C runs as follows: (dose: 6.25 mg/kg/injection, schedule: Q01DX009 (ip), vehicle: saline) 106 % of control; (dose: 12.5 mg/kg/injection, schedule: Q01DX009 (ip), vehicle: saline) 92 % of control; (dose: 12.5 mg/kg/injection, schedule: Q04DX003 (ip), vehicle: saline) 102 % of control; (dose: 25.0 mg/kg/injection, schedule: Q01DX009 (ip), vehicle: saline) 93 % of control; (dose: 25.0 mg/kg/injection, schedule: Q04DX003 (ip), vehicle: saline) 116 % of control; (dose: 50.0 mg/kg/injection, schedule: Q01DX009 (ip), vehicle: saline) 93 % of control. Further, the T/C (dose: 50.0 mg/kg/injection, schedule: Q04DX003 (ip), vehicle: saline) was 100 % of control and the T/C under setting [8] was 102 % of control.
Regarding `COC(=O)C1c2ccccc2-c2ccccc21`, the T/C under setting [5] is 97 % of control, the T/C under setting [6] was 107 % of control and the T/C under setting [9] is 96 % of control.
On to `Clc1nc(Cl)c(Nc2ccn[nH]2)nc1Cl`, for which the T/C under setting [6] was 91 % of control, the T/C under setting [9] is 86 % of control and the T/C under setting [10] is 94 % of control.
For the compound `O=C1c2cc([N+](=O)[O-])ccc2-c2c(F)cc(F)cc21`, the T/C is, setting by setting: under setting [8], 104 % of control; (dose: 200.0 mg/kg/injection, schedule: Q04DX003 (ip), vehicle: saline) 89 % of control; (dose: 400.0 mg/kg/injection, schedule: Q04DX003 (ip), vehicle: saline) 91 % of control.
On to `CC(O)CCc1ccc(OC(=O)c2ccccc2)cc1` (stereo unspecified), for which the T/C runs as follows: under setting [11], 101 % of control; under setting [1], 92 % of control; under setting [2], 101 % of control; under setting [7], 92 % of control.
For the compound `NCCNCCN`, the T/C is 102 % of control under setting [11], 116 % of control under setting [1], 104 % of control under setting [2] and 108 % of control under setting [7].
In the case of `COc1ccc(Cl)cc1NC(=O)Oc1ccc(C(C)=O)cc1`, the T/C by setting is: (dose: 100.0 mg/kg/injection, schedule: Q01DX001 (ip), vehicle: saline with Tween-80) 100 % of control; under setting [6], 97 % of control and 104 % of control; (dose: 100.0 mg/kg/injection, schedule: Q04DX002 (ip), vehicle: saline with Tween-80) 121 % of control; under setting [3], 90 % of control; (dose: 200.0 mg/kg/injection, schedule: Q01DX001 (ip), vehicle: saline with Tween-80) 100 % of control; under setting [9], 96 % of control. The T/C was 99 % of control (dose: 200.0 mg/kg/injection, schedule: Q04DX002 (ip), vehicle: saline with Tween-80); 87 % of control under setting [4]; 93 % of control (dose: 400.0 mg/kg/injection, schedule: Q01DX001 (ip), vehicle: saline with Tween-80); 100 % of control and 86 % of control under setting [10]; 99 % of control (dose: 400.0 mg/kg/injection, schedule: Q04DX002 (ip), vehicle: saline with Tween-80); 99 % of control (dose: 400.0 mg/kg/injection, schedule: Q04DX003 (ip), vehicle: saline with Tween-80).
For the compound `CC(Cc1ccc2c(c1)OCO2)[N+](=O)[O-]` (stereo unspecified), the T/C is 102 % of control (dose: 150.0 mg/kg/injection, schedule: Q04DX003 (ip), vehicle: saline with Tween-80) and 100 % of control (dose: 300.0 mg/kg/injection, schedule: Q04DX003 (ip), vehicle: saline with Tween-80).
